The target of experiment [1] is T1, JAK3 enzyme (Homo sapiens, UniProt P52333).
T1 sequence (P52333 1-1124): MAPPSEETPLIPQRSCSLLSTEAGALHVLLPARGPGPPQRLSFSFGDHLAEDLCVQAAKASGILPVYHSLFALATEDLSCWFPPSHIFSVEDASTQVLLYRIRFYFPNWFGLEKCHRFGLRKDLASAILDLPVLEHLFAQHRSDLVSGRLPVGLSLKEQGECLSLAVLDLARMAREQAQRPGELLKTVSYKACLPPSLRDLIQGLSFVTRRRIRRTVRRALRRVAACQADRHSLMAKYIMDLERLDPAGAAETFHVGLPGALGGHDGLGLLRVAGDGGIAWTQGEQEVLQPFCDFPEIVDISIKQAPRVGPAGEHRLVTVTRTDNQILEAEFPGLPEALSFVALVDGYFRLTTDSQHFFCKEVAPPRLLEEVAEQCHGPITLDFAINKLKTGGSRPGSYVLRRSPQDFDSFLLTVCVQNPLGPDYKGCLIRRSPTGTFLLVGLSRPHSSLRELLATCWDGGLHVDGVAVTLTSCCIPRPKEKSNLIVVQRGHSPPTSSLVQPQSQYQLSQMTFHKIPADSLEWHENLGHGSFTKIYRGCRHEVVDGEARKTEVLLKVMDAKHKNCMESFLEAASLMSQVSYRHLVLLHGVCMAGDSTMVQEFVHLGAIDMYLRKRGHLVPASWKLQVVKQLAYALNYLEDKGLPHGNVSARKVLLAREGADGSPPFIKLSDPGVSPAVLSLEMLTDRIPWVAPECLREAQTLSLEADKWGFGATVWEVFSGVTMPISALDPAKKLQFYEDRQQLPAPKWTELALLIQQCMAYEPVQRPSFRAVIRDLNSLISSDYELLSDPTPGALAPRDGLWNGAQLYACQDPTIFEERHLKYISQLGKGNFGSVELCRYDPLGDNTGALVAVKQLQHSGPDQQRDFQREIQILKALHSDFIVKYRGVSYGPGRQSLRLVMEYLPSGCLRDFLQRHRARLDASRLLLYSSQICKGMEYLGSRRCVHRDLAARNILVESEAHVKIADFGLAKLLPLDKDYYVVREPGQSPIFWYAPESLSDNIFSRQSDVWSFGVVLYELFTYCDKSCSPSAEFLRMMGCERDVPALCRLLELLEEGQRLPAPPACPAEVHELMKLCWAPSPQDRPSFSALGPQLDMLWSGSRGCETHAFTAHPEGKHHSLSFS
As to the kind of experiment: JAK Caliper Enzyme Assay at 4 μM ATP. It is filed as biochemical. The method, then: (§1) Test article was solubilized in dimethyl sulfoxide (DMSO) to a stock concentration of 30 mM. An 11-point half log dilution series was created in DMSO with a top concentration of 600 μM. […] Test article and assay controls were added to a 384-well plate. […] Enzyme concentrations and incubation times were optimized for each new enzyme preps and were modified slightly over time to ensure 20%-30% phosphorylation. […] The assay plates were placed on a Caliper Life Science Lab Chip 3000 (LC3000) instrument, and each well was sampled using appropriate separation conditions to measure the unphosphorylated and phosphorylated peptide.

For experiment [2], the target named is T1, JAK3 enzyme. As to the kind of experiment: JAK Caliper Enzyme Assay at 1 mM ATP. The class given is biochemical. The method, then: as §1

For `C=CC(=O)N1CCN(c2cnc3[nH]cc(C(=O)N[C@H](C)COCc4ccccc4)c3n2)CC1(C)C` [Example 169, 2-(4-acryloyl-3,3-dimethylpiperazin-1-yl)-N-[(2R)-1-(benzyloxy)propan-2-yl]-5H-pyrrolo[2,3-b]pyrazine-7-carboxamide], the figures for the IC50 on JAK3 enzyme [1] and against JAK3 enzyme [2] were 7.31 nM and 845 nM, respectively.
The like results for `C=CC(=O)N1C[C@H](Nc2cnc3[nH]cc(C(=O)NCC)c3n2)C[C@@H]1COC` [Example 262, 2-{[(3R,5R)-1-acryloyl-5-(methoxymethyl)pyrrolidin-3-yl]amino}-N-ethyl-5H-pyrrolo[2,3-b]pyrazine-7-carboxamide] were, in that order, 11.6 nM and 2180 nM.
The like results for `C=CC(=O)N1CCC(COc2cnc3[nH]cc(C(=O)N[C@@H](C)COC)c3n2)C1` (mixture of isomers) [Example 10, Racemic-2-[(1-acryloylpyrrolidin-3-yl)methoxyl]-N-[(2S)-1-methoxypropan-2-yl]-5H-pyrrolo[2,3-b]pyrazine-7-carboxamide] were, in that order, 2.77 nM and 632 nM.
In the case of `C=CC(=O)N1CC[C@@H](OC)[C@@H](Nc2cnc3[nH]cc(C(=O)N[C@H](C)COC)c3n2)C1` (single isomer, unassigned) [Example 5], the values for the IC50 at JAK3 enzyme [1] and at JAK3 enzyme [2] were 0.408 nM and 46 nM, respectively.
For `C=CC(=O)N1C[C@@H](C)[C@@H](Nc2cnc3[nH]cc(C(=O)NCCOC)c3n2)C1` (stereo in doubt) [Example 253, 2-[(1-acryloyl-4-methylpyrrolidin-3-yl)amino]-N-(2-methoxyethyl)-5H-pyrrolo[2,3-b]pyrazine-7-carboxamide], in that order: 72 nM and 7680 nM.
`C=CC(=O)N1CCN(c2cnc3[nH]cc(C(=O)N[C@@H](COC)c4ccccc4)c3n2)CC1(C)C` [Example 138, 2-(4-acryloyl-3,3-dimethylpiperazin-1-yl)-N-[(1R)-2-methoxy-1-phenylethyl]-5H-pyrrolo[2,3-b]pyrazine-7-carboxamide]: the values for the IC50 at JAK3 enzyme [1] and against JAK3 enzyme [2] were 46.7 nM and 4840 nM, respectively.
For `C=CC(=O)N1C[C@H](C)[C@H](Nc2cnc3[nH]cc(C(=O)NCC)c3n2)C1` (stereo in doubt) [Example 260, 2-[(1-acryloyl-4-methylpyrrolidin-3-yl)amino]-N-ethyl-5H-pyrrolo[2,3-b]pyrazine-7-carboxamide], in that order: 2.14 nM and 676 nM.
For `C=CC(=O)N1CCC(Nc2cnc3[nH]cc(C(=O)NCC(C)(C)C)c3n2)CC1C` (racemic) [Example 267, Racemic-2-[(1-acryloyl-2-methylpiperidin-4-yl)amino]-N-(2,2-dimethylpropyl)-5H-pyrrolo[2,3-b]pyrazine-7-carboxamide], in that order: 4.99 nM and 802 nM.
For the compound `C=CC(=O)N1CCC(Oc2cnc3[nH]cc(C(=O)NCCC(F)(F)F)c3c2)CC1` [Example 338, 5-[(1-acryloylpiperidin-4-yl)oxy]-N-(3,3,3-trifluoropropyl)-1H-pyrrolo[2,3-b]pyridine-3-carboxamide], the results for the IC50 against JAK3 enzyme [1] and against JAK3 enzyme [2] were 31.4 nM and 2780 nM, respectively.
For `C=CC(=O)N1CCC(Nc2cnc3[nH]cc(C(=O)N[C@@H]4C[C@H]4C(F)(F)F)c3n2)CC1C` (mixture of isomers) [Example 337, Racemic-2-[(1-acryloyl-2-methylpiperidin-4-yl)amino]-N-[(1R,2R)-2-(trifluoromethyl)cyclopropyl]-5H-pyrrolo[2,3-b]pyrazine-7-carboxamide], in that order: 14.4 nM and 1840 nM.
For `C=CC(=O)N1CCN(c2cnc3[nH]cc(C(=O)NCC4(O)CCC(F)(F)CC4)c3n2)CC1(C)C` [Example 291, 2-(4-acryloyl-3,3-dimethylpiperazin-1-yl)-N-[(4,4-difluoro-1-hydroxycyclohexyl)methyl]-5H-pyrrolo[2,3-b]pyrazine-7-carboxamide], in that order: 15.5 nM and 1490 nM.
For the compound `C=CC(=O)N1CCN(c2cnc3[nH]cc(C(=O)N[C@@H]4C[C@H]4C(F)(F)F)c3n2)CC1(C)C` [Example 290, 2-(4-acryloyl-3,3-dimethylpiperazin-1-yl)-N-[(1R,2R)-2-(trifluoromethyl)cyclopropyl]-5H-pyrrolo[2,3-b]pyrazine-7-carboxamide], the figures for the IC50 at JAK3 enzyme [1] and against JAK3 enzyme [2] were 20.8 nM and 2150 nM, respectively.
Take `C=CC(=O)N1CCC(Oc2cnc3[nH]cc(-c4ncn(CC)n4)c3n2)CC1` [Example 125, 1-(4-{[7-(1-Ethyl-1H-1,2,4-triazol-3-yl)-5H-pyrrolo[2,3-b]pyrazin-2-yl]oxy}piperidin-1-yl)prop-2-en-1-one]: the IC50 amounted to 7.82 nM against JAK3 enzyme [1] and 1880 nM against JAK3 enzyme [2].
The like results for `C=CC(=O)N1CCC(Oc2cnc3[nH]cc(C(=O)NCCC)c3c2)CC1` [Example 347, 5-[(1-acryloylpiperidin-4-yl)oxy]-N-propyl-1H-pyrrolo[2,3-b]pyridine-3-carboxamide] were, in that order, 24.2 nM and 3080 nM.
For `C=CC(=O)N1CCC(Oc2cnc3[nH]cc(C(=O)NCC4(O)CCC(C)C4)c3n2)CC1` (racemic) [Example 201, Racemic-2-[(1-acryloylpiperidin-4-yl)oxy]-N-[(1-hydroxy-3-methylcyclopentyl)methyl]-5H-pyrrolo[2,3-b]pyrazine-7-carboxamide], the IC50 against JAK3 enzyme [1] was found to be 3.62 nM; at JAK3 enzyme [2] it was 411 nM.
For `C=CC(=O)N1CC[C@@H](Nc2cnc3[nH]cc(C(=O)NCC)c3n2)C1` [Example 234, 2-{[(3R)-1-acryloylpyrrolidin-3-yl]amino}-N-ethyl-5H-pyrrolo[2,3-b]pyrazine-7-carboxamide], in that order: 17.9 nM and 2270 nM.
For `C=CC(=O)N1CCN(c2cnc3[nH]cc(C(=O)NC(CO)c4cccc(F)c4)c3n2)CC1(C)C` (racemic) [Example 136, Racemic-2-(4-acryloyl-3,3-dimethylpiperazin-1-yl)-N-[1-(3-fluorophenyl)-2-hydroxyethyl]-5H-pyrrolo[2,3-b]pyrazine-7-carboxamide], in that order: 5.82 nM and 632 nM.
The like results for `C=CC(=O)N1CCN(c2cnc3[nH]cc(C(=O)NC(CO)CCCC)c3n2)CC1(C)C` (racemic) [Example 155, Racemic-2-(4-acryloyl-3,3-dimethylpiperazin-1-yl)-N-(1-hydroxyhexan-2-yl)-5H-pyrrolo[2,3-b]pyrazine-7-carboxamide] were, in that order, 4.92 nM and 721 nM.
Consider `C=CC(=O)N1CCN(c2cnc3[nH]cc(C(=O)NC4CC(F)(F)C4)c3n2)CC1(C)C` [Example 325, 2-(4-acryloyl-3,3-dimethylpiperazin-1-yl)-N-(3,3-difluorocyclobutyl)-5H-pyrrolo[2,3-b]pyrazine-7-carboxamide], for which the IC50 against JAK3 enzyme [1] turned out to be 12.8 nM; against JAK3 enzyme [2], 1260 nM.
The like results for `C=CC(=O)N1C[C@@H](Nc2ncnc3[nH]ccc23)CC[C@H]1COC` (single isomer, unassigned) [Example 96] were, in that order, 433 nM and over 10000 nM.
The like results for `C=CC(=O)N1CCN(c2cnc3[nH]cc(C(=O)N[C@H](C)COc4ccccc4)c3n2)CC1(C)C` [Example 167, 2-(4-acryloyl-3,3-dimethylpiperazin-1-yl)-N-[(2R)-1-phenoxypropan-2-yl]-5H-pyrrolo[2,3-b]pyrazine-7-carboxamide] were, in that order, 4.61 nM and 599 nM.
For `C=CC(=O)N1CCN(c2cnc3[nH]cc(C(=O)NCCCC(F)(F)F)c3n2)CC1(C)C` [Example 272, 2-(4-acryloyl-3,3-dimethylpiperazin-1-yl)-N-(4,4,4-trifluorobutyl)-5H-pyrrolo[2,3-b]pyrazine-7-carboxamide], in that order: 3.82 nM and 651 nM.
On to `C=CC(=O)N1CC[C@H](OC)[C@H](Nc2cnc3[nH]cc(C(=O)N[C@H](C)COC)c3n2)C1` (single isomer, unassigned) [Example 6], for which the IC50 against JAK3 enzyme [1] was 10.1 nM; against JAK3 enzyme [2], 1320 nM.
On to `C=CC(=O)N1CC[C@@H](N(C)c2cnc3[nH]cc(C(=O)NCC)c3n2)C1` (single isomer, unassigned) [Example 29], for which inhibition against JAK3 enzyme [2] was half-maximal at 8310 nM (IC50).

Source of the values: patent publication US10703756B2, “Pyrrolo[2,3-D]pyrimidinyl, pyrrolo[2,3-B]pyrazinyl, pyrrolo[2,3-B]pyridinyl acrylamides and epoxides thereof” (Pfizer Inc., priority 2015, dated 2020).
